Measured values from PubChem BioAssay AID1159561 (GlaxoSmithKline (GSK), 2015).
Active and inactive are the calls of the source.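 The calls were made as follows: active = toxic to mouse fibroblast host cells, with IC50 below 50 µM; inactive = the rest.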

What follows are molecules tested on NIH-3T3 viability, ATP luminescence (assay: murine fibroblast viability via ATP level – cell-based, murine fibroblasts, cytotoxicity control for Trypanosoma cruzi inhibitor project (AID 1159561)). Settings: 4 days.

| SMILES | IC50 |
| --- | --- |
| O=C(NC(c1ccc(Cl)cc1)c1cnccn1)C1CCN(C(=O)Nc2cccc(C(F)(F)F)c2)CC1 (stereo not given) | 40 µM |
| Nc1ncnc2c1ncn2[C@@H]1O[C@H](CO)C[C@H]1O | > 50 µM (inactive) |
| Clc1ccc(CN2CCN(C3=NCCN3)CC2)cc1Cl | 40 µM |
| CN(C)Cc1ccc(N2CCC(NS(=O)(=O)c3ccc(Cl)cc3)CC2)cc1 | 16 µM |
| Cc1nccn1C1CCCN(C(=O)c2cc3c(F)cccc3s2)C1 (stereo not given) | 20 µM |
| CCCC(=O)N(Cc1ccccn1)c1nc2ccccc2s1 | > 50 µM (inactive) |
| Clc1cc(Br)ccc1OCCCCn1ccnc1 | 16 µM |
| CCN(Cc1ccncc1)Cc1ccc(NC(=O)c2cc(-c3ccc(F)cc3)n[nH]2)cc1 | 10 µM |
| O=C(NC1C(=O)N(c2ccccc2)C1c1cccnc1)c1ccc(Cl)s1 (stereo not given) | > 50 µM (inactive) |
| O=C(NCCc1cccnc1)c1csc(-c2ccccc2)n1 | 50 µM |
| Clc1ccc(OCCN2CCCCC2c2cccnc2)c(Cl)c1 (stereo not given) | 25 µM |
| CN(C(=O)Nc1ccc2c(c1)CCN(C1CCC1)CC2)c1ccc(C#N)cc1 | 40 µM |
| CC1(C)CCC(=Cc2ccc(Cl)cc2)CC1(O)Cn1ccnc1 (stereo not given) | 16 µM |
| Cn1cncc1CN1CCC2(CC1)COC(Cc1ccccc1)C2 (stereo not given) | 25 µM |
| C=CCOCC1Cn2nc([N+](=O)[O-])nc2O1 (stereo not given) | > 50 µM (inactive) |
| CCCn1c(NC(=O)Cc2ccc(Cl)cc2)nc2ccccc21 | > 50 µM (inactive) |
| CC(C(=O)Nc1ccc(Br)cc1)N1CCN(c2ccc([N+](=O)[O-])cc2)CC1 (stereo not given) | > 50 µM (inactive) |
| N#Cc1ccc(S(=O)(=O)N2CCC3(CCN(c4ccccc4)C3=O)CC2)cc1 | > 50 µM (inactive) |
| Cc1ccc(NC(=O)C(C)n2nc([N+](=O)[O-])c(Br)c2C)cc1Cl (stereo not given) | 13 µM |
| Cc1cc(N(C)C)nc2ccc(Cc3cnc(N)nc3N)cc12 | 10 µM |
| CC(CNS(=O)(=O)c1ccc(OC(F)F)cc1)c1ccc(NC(=O)c2ccncc2)cc1 (stereo not given) | > 50 µM (inactive) |
| O=S(=O)(c1cccc(CSc2nnc(-c3ccc4c(c3)OCO4)o2)c1)N1CCOCC1 | 16 µM |
| O=C(NCCc1ccccn1)C(c1cn[nH]c1)N1CCN(c2ccc(Cl)c(Cl)c2)CC1 (stereo not given) | 32 µM |
| Cc1nn(C)c(Cl)c1CN(Cc1cccnc1)Cc1ccsc1 | 20 µM |
| Cc1ccc2sc(NC(=O)Cn3cnc([N+](=O)[O-])n3)nc2c1 | 50 µM |
| COc1cc(NC(=O)Nc2cccc(CNC(=O)OC3CCCCC3)c2)ccc1-c1cnco1 | 10 µM |
| O=C(NCCNc1noc(-c2ccc([N+](=O)[O-])cc2)n1)c1ccc(Cl)cc1 | > 50 µM (inactive) |

| SMILES | IC50 |
| --- | --- |
| Cc1nc2nc(C)c(Cc3ccc(C(C)C)cc3)c(=O)n2[nH]1 | > 50 µM (inactive) |
| CN(C)CCN(C)Cc1ccc(F)cc1NS(=O)(=O)c1ccc(Cl)c(Cl)c1 | 16 µM |
| COc1ccc(-c2nc3ncccc3o2)cc1NC(=O)c1cccs1 | > 50 µM (inactive) |
| CNc1cncc(C2CCCN2C(=O)Cc2coc3cc(C)ccc23)n1 (stereo not given) | > 50 µM (inactive) |
| Cn1nccc1-c1cc(OC(CN)c2ccccc2)cnc1-c1ccco1 (stereo not given) | 20 µM |
| O=C(Nc1nc(-c2ccc(S(=O)(=O)N3CCOCC3)cc2)cs1)c1ccc([N+](=O)[O-])cc1 | 25 µM |
| COc1ccc(S(=O)(=O)Nc2ccccc2OC)cc1NC(=O)CCCc1c[nH]c2ccccc12 | > 50 µM (inactive) |
| COc1ccc(C2CC(c3ccccc3Cl)=NN2C(=O)CNC(=O)C2CCC2)cc1 (stereo not given) | 32 µM |
| N#Cc1ccc(S(=O)(=O)N2CCN(Cc3cccc(-c4ccncc4)c3)CC2)cc1 | 13 µM |
| O=C(NCC1CCCCC1)c1cnns1 | > 50 µM (inactive) |
| COc1ccc2nc(N(Cc3cccnc3)C(=O)C3CCC3)sc2c1 | 50 µM |
| O=c1ccc2ccc(F)c3c2n1C[C@H]3CN1CCC(NCc2cc3ccccc3o2)CC1 | 20 µM |
| O=C(NCC(c1cccnc1)N1CCc2ccccc2C1)C(=O)Nc1cccc(Cl)c1 (stereo not given) | 25 µM |
| COc1ccc2ncc(F)c(NC(=O)C3(O)CCC(NCc4ccc5c(c4)OCCO5)CC3)c2n1 (stereo not given) | 7.9 µM |
| O=c1oc2ccccc2n1C1CCN(Cc2ccccc2-c2cccnc2)CC1 | 16 µM |
| CC(=Cc1ccccc1)CN1CCC(=O)N(Cc2cccnc2)CC1 | > 50 µM (inactive) |
| c1cc(-c2ncc(-c3ccn[nH]3)s2)ccn1 | > 50 µM (inactive) |
| O=C1CCCCCC1(Cc1cnc[nH]1)c1ccc(Cl)cc1Cl (stereo not given) | 20 µM |
| Cc1c([N+](=O)[O-])c(C(=O)Nc2sc3c(c2C#N)CCC(C)C3)nn1C (stereo not given) | 13 µM |
| CCCN(Cc1ccc(OC)c(OC)c1)Cc1cc(=O)c2c(C)cc(C)cc2[nH]1 | 32 µM |
| Cc1c(C(=O)NCCCCn2ccnc2)oc2c(C)cccc12 | 32 µM |
| COc1ccc(NS(=O)(=O)c2cccc(NC(=O)c3cc(F)cc(F)c3)c2)cc1 | 25 µM |
| Cc1cc(Br)cc(C(=O)c2c(C(C)C)c(=O)[nH]c(=O)n2Cc2ccnc(N)c2)c1 | 16 µM |
| CC(C)(C)C(O)(CCc1ccc(Cl)cc1)Cn1cncn1 (stereo not given) | > 50 µM (inactive) |
| Cc1nnnn1-c1cccc(C(=O)N2CCC[C@@]3(C)c4ncncc4CCC23)c1 (stereo not given in full) | > 50 µM (inactive) |
| CN(C)CCOc1ccc(N2CCN(S(=O)(=O)c3ccc(Cl)cc3)CC2)cc1 | 16 µM |
| Cc1c(C(C)NC(=O)Nc2cccc(Cl)c2)sc2ncnn12 (stereo not given) | > 50 µM (inactive) |

| SMILES | IC50 |
| --- | --- |
| Clc1ccc(C(CC2CCCCO2)Cn2cncn2)c(Cl)c1 (stereo not given) | 40 µM |
| COc1ccc(CN(C)Cc2ccncc2)cc1-c1ccc(S(=O)(=O)NC2CCC2)s1 | 25 µM |
| CNc1cc(C)nc(C2CN(C(=O)c3n[nH]c4ccccc34)CCO2)c1 (stereo not given) | > 50 µM (inactive) |
| COc1ccc(C(=O)Nc2cc(C(F)(F)F)ccc2N2CCOCC2)c(OC)c1 | 32 µM |
| O=C(NCCc1nc(-c2ccc(F)c(F)c2)n[nH]1)C1CCCCC1 | > 50 µM (inactive) |
| CCC1Oc2cc(S(=O)(=O)N(C)CC(=O)N3CCc4ccccc4C3)c(C)cc2NC1=O (stereo not given) | > 50 µM (inactive) |
| Cc1[nH]c2ccccc2c(=O)c1Cc1c(C)[nH]c2ccccc2c1=O | > 50 µM (inactive) |
| Cc1cccc(NS(=O)(=O)c2ccc3c(c2)C(=O)c2cc(S(=O)(=O)Nc4cccc(C)c4C)ccc2-3)c1C | > 50 µM (inactive) |
| O=C(Nc1ccc(Br)cn1)c1ccc(Cn2cnc([N+](=O)[O-])n2)cc1 | > 50 µM (inactive) |
| O=C(c1ccc(OCCCc2cnc[nH]2)cc1)C1CC1 | 13 µM |
| O=[N+]([O-])c1cccc(Nc2cncc(-c3ccccc3CO)c2)c1 | 40 µM |
| Cc1ccc2nc(N(Cc3cccnc3)C(=O)CCc3ccccc3)sc2c1 | 16 µM |
| CCCCNc1nccc(-c2c(-c3ccc(F)cc3)nn3c(N4CCOCC4)cccc23)n1 | 10 µM |
| COc1ccc(S(=O)(=O)NC(C)C)cc1Nc1ncc(-c2cccc(F)c2)cn1 | 5 µM |
| COc1cccc(-c2cc(C(F)(F)F)nc(-n3ccc([N+](=O)[O-])n3)n2)c1 | > 50 µM (inactive) |
| O=S(=O)(c1ccccc1C(F)(F)F)N1CCN(Cc2ccc(-n3ccnc3)cc2)CC1 | > 50 µM (inactive) |
| O=C(NCc1ccncc1)c1ccccc1N1CCCN(C(=O)Cc2ccc(F)c(F)c2)CC1 | 16 µM |
| Fc1ccccc1N1C[C@H]2CCN(c3cccnc3)C[C@H]2C1 | 13 µM |
| N#Cc1c(Oc2cccc(Cl)c2)cccc1[N+](=O)[O-] | 20 µM |
| CC(Cn1ccnc1)NC(=O)C=Cc1ccc(Cl)cc1 (stereo not given) | > 50 µM (inactive) |
| CN(Cc1nnnn1C1CCN(Cc2ccc(-n3ccnc3)cc2)CC1)c1ccc(F)cc1F | 25 µM |
| CS(=O)(=O)NC1CCC(Oc2cc3cnccc3cc2-c2ccsc2)CC1 (stereo not given) | 16 µM |
| O=C(Nc1cccc(Cl)c1)N1CCCCC1c1cccnc1 (stereo not given) | 32 µM |
| COc1cccc(CCNC(=O)C(c2cn[nH]c2)N2CCN(c3ccc(Cl)cc3)CC2)c1 (stereo not given) | 32 µM |
| O=C1CSC(c2cccnc2)N1c1ccc(Cl)cc1Cl (stereo not given) | > 50 µM (inactive) |
| Cc1ccc(C)c(-n2nnnc2Sc2nc([N+](=O)[O-])nn2C)c1 | > 50 µM (inactive) |
| CN(Cc1cccnc1)Cc1ccc(N2CCN(C(=O)C3(c4ccc(Cl)cc4)CC3)CC2)nc1 | 7.9 µM |

| SMILES | IC50 |
| --- | --- |
| CCOc1ccc(NC(=O)C=Cc2ccc(CC)o2)cc1 | 32 µM |
| O=c1[nH]c(C=Cc2cccc(OCCOc3ccccc3)c2)nc(O)c1[N+](=O)[O-] | > 50 µM (inactive) |
| CCN(C)Cc1ccc(N2CCC(NS(=O)(=O)c3ccc4c(c3)CCO4)CC2)nc1 | 13 µM |
| O=S(=O)(NCC(c1cccnc1)N1CCN(c2ccc(F)cc2)CC1)c1cccs1 (stereo not given) | > 50 µM (inactive) |
| Cc1cc(C#N)c([N+](=O)[O-])cc1Br | 20 µM |
| O=C(Nc1ccc(Br)c(Cl)c1)Nc1ccc2c(c1)OCO2 | 16 µM |
| O=C1CN(C2CCCc3c(OCc4ccncc4)cccc32)C(=O)N1C1CCCCC1 (stereo not given) | > 50 µM (inactive) |
| CN(Cc1ccccc1)Cc1nnnn1C1CCN(Cc2ccc(-n3ccnc3)cc2)CC1 | 4 µM |
| Cc1ccc2ccc(C(Nc3ccccn3)c3cccnc3)c(O)c2n1 (stereo not given) | 10 µM |
| c1ccc2c(CCOc3nccnc3-c3ccncc3)c[nH]c2c1 | 20 µM |
| Cc1cc(C)nc(N2CCC(N(Cc3cccnc3)C(=O)c3cccc(C#N)c3)CC2)n1 | 7.9 µM |
| CCN(CC)S(=O)(=O)c1ccc(Cn2nc(C(=O)Nc3ccncn3)c3ccccc32)cc1 | 40 µM |
| O=C(CN(c1cccc(C(F)(F)F)c1)S(=O)(=O)c1ccc(Cl)cc1)NCc1ccc(F)c(F)c1 | 32 µM |
| CS(=O)(=O)c1cccc(CNC(=O)c2cncc(N3CCN(c4ccc(F)cc4)CC3)c2)c1 | 25 µM |
| Cc1cccc(N2CCCN(Cc3c[nH]c4ccccc34)CC2)n1 | 25 µM |
| Cc1cc2cncn2c(C2CCCCN2C(=O)c2cccs2)n1 (stereo not given) | > 50 µM (inactive) |
| O=C(c1cccc(Cl)c1Cl)N1CCn2c1nc(-c1ccncc1)cc2=O | 20 µM |
| CC(C(=O)Nc1ccccc1F)N(C)CC(=O)Nc1cccc2ccccc12 (stereo not given) | 13 µM |
| Cn1c(CN2CCN(c3ncc(C(F)(F)F)cc3Cl)CC2)nc2ccncc21 | 10 µM |
| O=C(c1cc2cc(Cl)ccc2[nH]1)N1CCCCC1c1cccnc1 (stereo not given) | 40 µM |
| Fc1ccc(OC2CC(NCc3cccc4cn[nH]c34)C2)cc1C(F)(F)F (stereo not given) | 13 µM |
| O=S(=O)(NCC(c1cccnc1)N1CCN(c2ccccc2F)CC1)c1ccc(F)cc1 (stereo not given) | > 50 µM (inactive) |
| O=C(Cn1cnc([N+](=O)[O-])n1)Nc1ccc(Cl)cc1C(=O)c1ccccc1 | > 50 µM (inactive) |
| CCn1nccc1CN(C)C(=O)C=Cc1ccc(Cl)cc1 | > 50 µM (inactive) |
